Counter-ions that a name gives are not always drawn. Like-named read-outs stand apart in the source and are kept apart here.
Columns and labels:
[1] = Solubility in aqueous media; assay type: physicochemical; conditions: salt solubility is system dependent (amount of salt present, relative amount of (R) and (S) salts)
[2] = Stability (aqueous environment, mechanical stress, heat and compression); assay type: physicochemical; conditions: subjected to an aqueous environment or to mechanical stress such as grinding

For `CC(OC(=O)C(C)(C)C)OC(=O)C(C)(N)Cc1ccc(O)c(O)c1` (mixture of isomers) [solvated phosphate salt mixture of (R,S)-POE ester of methyl], the solubility [1] was 57 to 197 grams per liter.

In the case of `C[C@](N)(Cc1ccc(O)c(O)c1)C(=O)O` (single isomer, unassigned) [methyldopa, L or (S)-3-(3,4-dihydroxyphenyl)-2-methylalanine], the solubility ([1]; read-out: solubility) is reported as 10000 µg/mL.

For `CC(OC(=O)C(C)(C)C)OC(=O)[C@@](C)(N)Cc1ccc(O)c(O)c1` (stereo partly drawn) [POE ester bases, (R,S)-l-pivaloyloxyethyl (S)-3-(3,4-dihydroxyphenyl)-2-methylalaninate], the stability [2] was “tend to be unstable”.

In the case of `CC(OC(=O)C(C)(C)C)OC(=O)C(C)(N)Cc1ccc(O)c(O)c1` (stereo not shown) [solvated tartaric acid salt mixture], the solubility [1] is reported as 156 to 383 grams per liter.
